# Tested on: Spodoptera litura larvae
# Test: Test for Spodoptera litura larvae (leaf dip)
# Type: in vivo
# Conditions: effective component concentration of 500 ppm; 3rd-instar larvae on dipped sweet potato leaves; after 7 days
# Experimental: In order to obtain a preparation of a proper active compound, 1 part by weight of an active compound was mixed with the stated amounts of solvent and emulsifier and the mixture was diluted to a specified concentration with water.
# The leaves of sweat potatoes were dipped in the test solution diluted to a specified concentration with water. After these leaves were dried in air to remove the chemical solution, they were placed in a Petri dish of 9 cm in diameter, in which 10 Spodoptera litura larvae of the 3rd-instar were set free. The Petri dish was placed in a thermostatic chamber kept at 25° C. and the leaves of sweat potatoes were added after 2 days and 4 days, to examine the number of dead larvae after 7 days, thereby calculating the insecticidal ratio of the chemical solution.
# In this test, an average of the results in two Petri dishes in one section was calculated.
row,Compound,insecticidal ratio [%]
1,O=[N+]([O-])c1cc(C2=NOC(c3cc(Cl)cc(Cl)c3)(C(F)(F)F)C2)ccc1-n1cc(Br)cn1 (centres unmarked) [Compound 27],100
2,O=[N+]([O-])c1cc(C2=NOC(c3cc(Cl)cc(Cl)c3)(C(F)(F)F)C2)ccc1-n1cc(I)cn1 (centres unmarked) [Compound 28],100
3,O=[N+]([O-])c1cc(C2=NOC(c3cc(Cl)cc(Cl)c3)(C(F)(F)F)C2)ccc1-n1nccn1 (centres unmarked) [Compound 72],100
4,FC(F)(F)c1cc(C(F)(F)F)cc(C2(C(F)(F)F)CC(c3ccc(-n4cnnn4)cc3)=NO2)c1 (centres unmarked) [Compound 162],100
5,O=[N+]([O-])c1cc(C2=NOC(c3cc(Cl)cc(Cl)c3)(C(F)(F)F)C2)ccc1-n1ccnc1 (centres unmarked) [Compound 52],100
6,"1-(4-{5-[3,5-bis(trifluoromethyl)phenyl]-5-(trifluoromethyl-4,5-dihydroisoxazol-3-yl}-2-nitrophenyl)-2H-tetrazole [Compound 178]",100
7,O=[N+]([O-])c1cc(C2=NOC(c3cccc(C(F)(F)F)c3)(C(F)(F)F)C2)ccc1-n1ncnn1 (centres unmarked) [Compound 176],100
8,O=[N+]([O-])c1cc(C2=NOC(c3cc(Cl)cc(Cl)c3)(C(F)(F)F)C2)ccc1-n1cc(Cl)cn1 (centres unmarked) [Compound 26],100
9,N#Cc1cnn(-c2ccc(C3=NOC(c4cc(Cl)cc(Cl)c4)(C(F)(F)F)C3)cc2)c1 (centres unmarked) [Compound 7],100
10,Cc1cnn(-c2ccc(C3=NOC(c4cc(Cl)cc(Cl)c4)(C(F)(F)F)C3)cc2[N+](=O)[O-])c1 (centres unmarked) [Compound 24],100
11,FC(F)(F)C1(c2cc(Cl)cc(Cl)c2)CC(c2ccc(-n3ccnc3)cc2)=NO1 (centres unmarked) [Compound 48],100
12,O=[N+]([O-])c1cc(C2=NOC(c3cc(Cl)cc(Cl)c3)(C(F)(F)F)C2)ccc1-n1cc(C(F)(F)F)cn1 (centres unmarked) [Compound 29],100
13,FC(F)(F)c1ccc(C2(C(F)(F)F)CC(c3ccc(-n4cncn4)cc3)=NO2)cc1 (racemic) [Compound 123],100
14,FC(F)(F)C1(c2cc(Cl)cc(Cl)c2)CC(c2ccc(-n3cccn3)c(Cl)c2)=NO1 (centres unmarked) [Compound 8],100
15,FC(F)(F)C1(c2cc(Cl)cc(Cl)c2)CC(c2ccc(-n3cc(Br)cn3)cc2)=NO1 (centres unmarked) [Compound 5],100
16,O=[N+]([O-])c1cc(C2=NOC(c3cc(Cl)cc(Cl)c3)(C(F)(F)F)C2)ccc1-n1cccn1 (centres unmarked) [Compound 23],100
17,FC(F)(F)C1(c2cc(Cl)cc(Cl)c2)CC(c2ccc(-n3cncn3)cc2Cl)=NO1 (racemic) [Compound 96],100
18,FC(F)(F)C1(c2cc(Cl)cc(Cl)c2)CC(c2ccc(-n3cnnn3)c(I)c2)=NO1 (centres unmarked) [Compound 152],100
19,O=[N+]([O-])c1cnn(-c2ccc(C3=NOC(c4cc(Cl)cc(Cl)c4)(C(F)(F)F)C3)cc2Br)c1 (centres unmarked) [Compound 12],100
20,FC(F)(F)c1cc(C(F)(F)F)cc(C2(C(F)(F)F)CC(c3ccc(-n4cncn4)c(Cl)c3)=NO2)c1 (racemic) [Compound 133],100

# Same assay, conditions: foliar, 168 h; effective component concentration of 500 ppm; 3rd-instar larvae on dipped sweet potato leaves; after 7 days; read-out: insecticidal ratio
row,Compound,pest or weed control at 500 ppm [%]
1,"N#Cc1cc(C2=NOC(c3cc(Cl)cc(Cl)c3)(C(F)(F)F)C2)ccc1-n1cccn1 (centres unmarked) [Compound 13, 5-[5-(3,5-dichlorophenyl)-5-(trifluoromethyl)-4,5-dihydroisoxazol-3-yl]-2-(1H-pyrazol-1-yl)benzonitrile]",100
2,"FC(F)(F)C1(c2cc(Cl)cc(Cl)c2)CC(c2ccc(-n3cnnc3)cc2)=NO1 (centres unmarked) [Compound 141, 4-{4-[5-(3,5-dichlorophenyl)-5-(trifluoromethyl)-4,5-dihydroisoxazol-3-yl]phenyl}-4H-1,3,4-triazole]",100
3,"Nc1cc(C2=NOC(c3cc(Cl)cc(Cl)c3)(C(F)(F)F)C2)ccc1-n1cncn1 (centres unmarked) [Compound 105, 5-[5-(3,5-dichlorophenyl)-5-(trifluoromethyl)-4,5-dihydroisoxazol-3-yl]-2-(1H-1,2,4-triazol-1-yl)aniline]",100

# Source: US20110086886A2, “INSECTICIDAL ISOXAZOLINES” (Bayer CropScience AG, priority 2006, published 2011)
